Measurements as given in patent US9315496B2, “Benzopyrone derivative and use thereof” (HUAZHONG UNIVERSITY OF SCIENCE & TECHNOLOGY, priority 2011, dated 2016).
Where two headings read alike, the source gives them in different places.

Assays:
mice of Kunming breed = assay: MK-801 induced high activity in mice; type: in vivo; conditions: for ED50: Mus musculus, 1.5 h, po, MK-801 0.1 mg/kg ip, spontaneous activity in 90 min; for improvement of MK-801 induced high activity (in words): compared to the model group
Description: Healthy mice of Kunming breed (with half male and half female, (20±2)g) were provided by Qinglongshan Animal Cultivation Center, Nanjing.
Subsequently, the spontaneous activities of the mice of each group in 90 min were measured.

D3 receptor = target: T1, D3 receptor (Homo sapiens, UniProt P35462); assay: D3 receptor assay ([3H]-Spiperone, HEK-293 cells); type: binding
T1 construct: expressed in transfected cells; host or cells: HEK-293
Description: After the cells were centrifuged at 1000 rpm for 5 min, the supernatant was discarded, and the cell pellet was collected and stored in a −20° C. fridge for reservation. It was re-suspended with Tris-Cl (pH 7.4) in the assay.
Tris was divided into aliquots by Genetimes Technology Inc.
Competitive binding test for receptors: 20 μl of each of the test compounds and 20 μl of the radioactive ligand together with 160 μl of the receptor proteins were added into the reaction tubes, and the final concentrations of the test compound and the positive drug were all 10 μmol/L. After 50 min of incubation in 30° C. water bath, the tubes were immediately moved to ice bath to terminate the reactions. GF/C glass fiber filter papers were used for rapid sucking filtration on a Millipore cell sample collector, elution buffer (50 mM Tris-HCl, PH 7.4) was applied for 3 ml×3 times, and microwave was applied for 4-5 min for drying. The filter papers were moved into 0.5 ml centrifuge tubes, and 500 μl of lipid-soluble scintillation solution was added. The tubes were allowed to stand still for over 30 min in dark, and the intensities of radioactivity were measured by a counter.

5-HT2C receptor = 5-HT2C receptor (Rattus norvegicus, UniProt P08909); assay: 5HT2C receptor binding assay ([3H]-mesulergine, rat brain striatum membrane)
KM mice [1] = assay: Apomorphine induced clambering assay of mice; type: in vivo; conditions: for ED50: Mus musculus, po, apomorphine 1 mg/kg sc
Description: Healthy KM mice (male, with body weight of 18-22 g) were provided by Qinglongshan Animal Cultivation Center, Nanjing.
Test positive drugs: haloperidol, clozapine, risperidone, olanzapine, aripiprazole, ziprasidone, quetiapine.
Apomorphine provided by Sigma Company was dissolved in 0.9% NaCl (containing 0.1% vitamin C) before use, and was freshly formulated before use.
Corresponding solvent double-distilled water was administered intragastrically to the negative control group and the model group, corresponding positive drugs were administered intragastrically to the positive drug groups (a small amount of acetic acid was first added and then double-distilled water was added when dissolving), and corresponding dosages of compounds were administered intragastrically to the compound groups for each dosage, with the volume for intragastric administration as 0.1 ml/10 g. 1 hour after the intragastric administration, apomorphine was subcutaneously injected (1 mg/kg), with the volume as 0.1 ml/10 g. After the injection of apomorphine, the mice were immediately put into the clambering cages. After 5 min of adaptation, the behaviors of the mice at 10-11, 20-21, and 30-31 min after the injection of apomorphine were observed and scored. Scoring criteria: 4 paws on the floor was scored as 0; 2 forepaws on the cage was scored as 1; and 4 paws on the cage was scored as 2.

Catalepsy assay = type: in vivo; conditions: both sexes, Kunming (KM), mouse, in vivo; mice, po
Description: (§1) Healthy mice of Kunming breed (with half male and half female, (22±2)g) were provided by Qinglongshan Animal Cultivation Center, Nanjing.
(§2) Instruments: self-made bar-grabbing apparatus: stainless steel bar in mice box, which was 0.3 cm in diameter and […].
(§3) Corresponding solvent double-distilled water was administered intragastrically to the negative control group and the model group, corresponding positive drugs were administered intragastrically to the positive drug groups (a small amount of acetic acid was first added and then double-distilled water was added when dissolving), and corresponding dosages of compounds were administered intragastrically to the compound groups for each dosage, with the volume for intragastric administration as 0.1 ml/10 g. At 30 min, 60 min, 90 min after the intragastric administration, the two forepaws of the mice were gently placed on the bars (which were 20 cm in length, 0.3 cm in diameter, and 5.5 cm above the bench), and the hindpaws of the animals were placed on the bottom of the box. The durations for the mice to maintain the posture with the two forepaws on the bars were recorded, and 30 s of spasticity without moving was considered as the positive response. In the case the forepaws of the mice were not put down persistently, the observation was terminated at 60 s. The numbers of animals with positive response in each of the compound dosage groups were counted.

in vivo = conditions: both, mouse, po
Description: (§4) KM mice (half male and half female) were randomly divided into several groups (with 2-5 mice in each group), which were respectively the 2000 mg/kg groups for each compound, and the solvent group. 0.2 ml/10 g were administered intragastrically. The death of the animals in 3 days were observed. (In the case 3 or more animals survived in 3 days without notable abnormity in their life states, the observation was continued until the assay was completed in 7 days. In the case 3 or more animals died in 3 days, the median lethal dose method was used to determine the LD50).
(§5) 0.2 ml/10 g were administered intragastrically, and the death of the animals in 1-3 days were observed.

5-HT2A receptor = 5-HT2A receptor (Rattus norvegicus, UniProt P14842); assay: 5HT2A receptor binding assay ([3H]-Ketanserin, rat brain striatum membrane); conditions: for inhibition at 10 µM: read-out: 5HT2A inhibition %
dopamine D2 receptor = dopamine D2 receptor (Rattus norvegicus, UniProt P61169); assay: D2 receptor binding assay (3H-Spiperone, rat brain striatum membrane); conditions: for inhibition at 10 µM: read-out: D2 inhibition %
Description: Rats were sacrificed by cervical dislocation on ice. Brain striatum was rapidly taken, and 2 brain striatums were combined into a centrifuge tube, to which 3 ml of buffer (0.05 M Tris-HCl buffer, containing NaCl 120 mM, KCl 5 mM, MgCl2 1 mM, CaCl2 1 mM) was added, homogenization was conducted for 3-4 s at level 4 for four times, and then 5 ml of buffer was then added. The weight of the homogenized tubes were adjusted using a balance, and centrifugation was conducted at 12000 r, 4° C. for 20 min. The supernatant was discarded, and 3 ml of buffer was added (0.05 M Tris-HCl buffer, containing NaCl 120 mM, KCl 5 mM, MgCl2 1 mM, CaCl2 1 mM). Vortex mixer was used for blending, and then 5 ml of buffer was added (0.05 M Tris-HCl buffer, containing NaCl 120 mM, KCl 5 mM, MgCl2 1 mM, CaCl2 1 mM). Centrifugation was conducted (repeated 3 times). After the centrifugations, the supernatant was discarded, and the pellets were stored at −80° C. for future use.
Beckman LS-6500 Multi-function Liquid Scintillation Counter was used.
(1) The prepared membrane was first applied with appropriate amount of homogenized liquid, and homogenizer was used for evenly dispersing. 15 tubes were mixed into a 100 ml container, and appropriate amount of homogenized liquid was added to give 50 ml of membrane suspension, which was reserved for future use.
(2) 100 μL of membrane preparation and 100 μL of buffer were added into each reaction tube.
(3) 100 μL of homogenized liquid was added into the total binding tube (TB), 100 μL of Butaclamol (final concentration 10^−5 M) was added into the non-specific binding tube (NB), and 100 μL of the test compound (final concentration 10^−5 M) was added into the specific binding tube (SB) for each compound.
(5) Each of the reaction tubes was incubated at 37° C. for 20 min. After the reaction was completed, the bound ligands were rapidly filtered under reduced pressure, and the ice-chilled assay buffer was used for adequate washing. The filter was taken out and put into a 3 ml scintillation vial, and 2 ml of toluene scintillation solution was added and blended.
(6) The scintillation vials were put into Liquid Scintillation Counter for counting. Inhibitory rate(1%)=(Total binding tube cpm−compound cpm)/(Total binding tube cpm−non-specific binding tube cpm)×100%
Each assay for the compounds was conducted in duplicate.

5-HT1A receptor = target: T2, 5-HT1A receptor (Rattus norvegicus, UniProt P19327); assay: 5HT1A receptor binding assay (3H-8-OH-DPAT, rat brain striatum membrane); conditions: for inhibition at 10 µM: test compound final concentration 10^−5 M
T2 sequence (P19327 1-422): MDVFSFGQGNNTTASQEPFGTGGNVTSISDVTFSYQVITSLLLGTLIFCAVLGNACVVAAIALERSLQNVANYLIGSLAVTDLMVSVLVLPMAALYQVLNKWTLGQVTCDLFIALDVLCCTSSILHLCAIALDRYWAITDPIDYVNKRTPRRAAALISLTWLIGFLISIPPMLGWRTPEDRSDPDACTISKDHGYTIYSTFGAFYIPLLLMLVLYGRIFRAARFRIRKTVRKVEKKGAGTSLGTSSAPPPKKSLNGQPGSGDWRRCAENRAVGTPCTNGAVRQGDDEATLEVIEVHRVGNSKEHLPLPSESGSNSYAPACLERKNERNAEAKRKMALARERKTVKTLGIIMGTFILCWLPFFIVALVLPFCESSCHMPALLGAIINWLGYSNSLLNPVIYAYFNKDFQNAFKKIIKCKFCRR
Description: Incubation at 37° C. was conducted for 10 min, the weight of the tubes were adjusted using a balance after incubation. […] Centrifugation was conducted and repeated 3 times.

KM mice [2] = assay: Catalepsy assay; type: in vivo
Description: as §1, §2, §3

KM mice [3] = conditions: both, mouse, in vivo
Description: as §4, §5

[4] = in vitro receptor binding assay
[5] = 3H-8-OH-DPAT, rat brain striatum membrane

Sequence of dopamine D2 receptor (P61169 whole entry): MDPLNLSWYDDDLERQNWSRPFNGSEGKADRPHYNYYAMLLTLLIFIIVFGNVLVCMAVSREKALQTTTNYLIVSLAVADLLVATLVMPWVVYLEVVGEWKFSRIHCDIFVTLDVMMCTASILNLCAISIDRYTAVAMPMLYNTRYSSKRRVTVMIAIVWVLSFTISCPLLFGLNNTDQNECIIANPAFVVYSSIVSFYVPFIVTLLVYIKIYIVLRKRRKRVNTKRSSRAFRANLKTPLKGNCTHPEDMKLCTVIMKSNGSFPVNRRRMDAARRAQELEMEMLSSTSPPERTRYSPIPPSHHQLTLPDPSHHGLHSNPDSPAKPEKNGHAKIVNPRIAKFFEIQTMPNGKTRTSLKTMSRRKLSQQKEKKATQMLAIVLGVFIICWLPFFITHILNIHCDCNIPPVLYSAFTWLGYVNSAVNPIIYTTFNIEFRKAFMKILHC
Sequence of 5-HT2A receptor (P14842 whole entry): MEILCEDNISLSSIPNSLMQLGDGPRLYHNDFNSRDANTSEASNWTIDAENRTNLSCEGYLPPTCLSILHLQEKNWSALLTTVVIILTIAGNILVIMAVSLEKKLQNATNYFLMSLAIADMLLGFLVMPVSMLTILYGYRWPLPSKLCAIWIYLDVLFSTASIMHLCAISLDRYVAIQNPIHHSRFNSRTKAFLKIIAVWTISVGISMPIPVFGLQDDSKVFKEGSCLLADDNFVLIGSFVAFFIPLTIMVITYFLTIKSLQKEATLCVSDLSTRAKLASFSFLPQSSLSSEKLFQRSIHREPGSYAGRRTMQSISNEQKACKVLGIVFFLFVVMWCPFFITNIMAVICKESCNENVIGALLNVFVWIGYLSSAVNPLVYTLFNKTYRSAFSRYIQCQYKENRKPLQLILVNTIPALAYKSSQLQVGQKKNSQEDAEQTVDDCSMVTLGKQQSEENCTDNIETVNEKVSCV
T1 sequence (P35462 whole entry): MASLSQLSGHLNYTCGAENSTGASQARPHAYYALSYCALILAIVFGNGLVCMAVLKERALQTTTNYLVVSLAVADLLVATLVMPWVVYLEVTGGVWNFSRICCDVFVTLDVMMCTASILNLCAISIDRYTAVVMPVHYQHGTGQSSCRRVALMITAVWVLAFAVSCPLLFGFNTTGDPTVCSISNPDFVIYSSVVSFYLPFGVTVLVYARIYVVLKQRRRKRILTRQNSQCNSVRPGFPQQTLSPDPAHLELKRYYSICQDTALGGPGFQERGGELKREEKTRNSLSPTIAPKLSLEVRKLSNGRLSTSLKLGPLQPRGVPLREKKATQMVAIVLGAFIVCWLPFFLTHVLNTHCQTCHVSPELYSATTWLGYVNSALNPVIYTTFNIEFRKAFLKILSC
Sequence of 5-HT2C receptor (P08909 33-460): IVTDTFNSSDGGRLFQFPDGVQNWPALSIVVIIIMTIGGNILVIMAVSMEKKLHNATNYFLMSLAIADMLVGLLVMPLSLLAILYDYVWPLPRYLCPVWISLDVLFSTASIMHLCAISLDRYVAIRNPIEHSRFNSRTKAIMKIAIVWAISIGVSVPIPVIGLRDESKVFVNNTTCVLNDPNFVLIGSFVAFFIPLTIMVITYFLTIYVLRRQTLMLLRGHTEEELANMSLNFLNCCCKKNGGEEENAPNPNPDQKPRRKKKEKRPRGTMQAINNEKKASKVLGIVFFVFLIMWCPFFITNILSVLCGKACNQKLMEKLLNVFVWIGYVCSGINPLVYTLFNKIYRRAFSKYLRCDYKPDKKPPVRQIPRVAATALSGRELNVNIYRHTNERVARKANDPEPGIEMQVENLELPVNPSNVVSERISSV

Row | Structure (SMILES) | ED50 (mice of Kunming breed) | ED50 (KM mice [1]) | ED50 (Catalepsy assay) | LD50 (in vivo) | inhibition at 10 µM (dopamine D2 receptor) | improvement of MK-801 induced high activity (in words) (mice of Kunming breed) | improvement of apomorphine induced clambering symptoms (in words) (KM mice [1]) | EPS at effective dosage (in words) (KM mice [2]) | inhibition at 10 µM (5-HT1A receptor; [5]) | further results
1 | Cc1cc(=O)oc2cc(OCCCN3CCC(c4noc5cc(F)ccc45)CC3)ccc12 [Compound 7, 7-(3-(4-(3-(6-fluoro-benzisoxazole)-1-piperidyl)-n-propoxy))-4-methyl-2H-benzopyran-2-one] | 0.27 mg/kg | 0.15 mg/kg | 1.5 mg/kg | 1000 to 2000 mg/kg | 103% |  |  |  |  | inhibition at 10 µM (D3 receptor; final concentration 10 μmol/L, [3H]-Spiperone, HEK-293 cells): 101%; affinity for D3 receptor (in words) (D3 receptor; [4]): relatively stronger affinities; affinity for 5-HT2C receptor (in words) (5-HT2C receptor; [4]): lower affinities; inhibition at 10 µM (5-HT2C receptor; read-out: 5HT2C inhibition %): 82%; IC50 (5-HT2A receptor; cells marked ^a, [3H]-Ketanserin, rat brain striatum membrane): 0.69 nM; affinity for 5-HT2A receptor (in words) (5-HT2A receptor; [4]): relatively stronger affinities; affinity for D2 receptor (in words) (dopamine D2 receptor; [4]): relatively stronger affinities; IC50 (5-HT1A receptor; cells marked ^a, 3H-8-OH-DPAT, rat brain striatum membrane): 5.95 nM; affinity for 5-HT1A receptor (in words) (5-HT1A receptor; [4]): relatively stronger affinities
2 | Cc1cc(=O)oc2c(Cl)c(OCCCCN3CCC(c4noc5cc(F)ccc45)CC3)ccc12 [Compound 19, 7-(4-(4-(3-(6-fluoro-benzisoxazole)-1-piperidyl)-n-butoxy))-4-methyl-8-chloro-2H-benzopyran-2-one] | 1.33 mg/kg | 1.68 mg/kg | 70.8 mg/kg |  | 27.8% | significantly improve | effectively improve | did not cause EPS | 104% | LD50 (in vivo; KM): > 2000 mg/kg; inhibition at 10 µM (5-HT2A receptor; test compound final concentration 10^−5 M, [3H]-Ketanserin, rat brain striatum membrane): 119%
3 | Cc1cc(=O)oc2c(C)c(OCCCCN3CCC(c4noc5cc(F)ccc45)CC3)ccc12 [Compound 23, 7-(4-(4-(3-(6-fluoro-benzisoxazole)-1-piperidyl)-n-butoxy))-4,8-dimethyl-2H-benzopyran-2-one] | 4.24 mg/kg | 0.21 mg/kg | 46.1 mg/kg | > 2000 mg/kg | 6.9% | significantly improve | effectively improve | did not cause EPS | 78.5% | inhibition at 10 µM (5-HT2A receptor): 78.6%
4 | O=C1CCc2ccc(OCCCCN3CCN(c4cccc(Cl)c4Cl)CC3)cc2N1 [aripiprazole] |  |  |  |  |  |  |  |  |  | LD50 (po, mg/kg) (KM mice [3]): 93 mg/kg
